Measured values taken from ChEMBL document CHEMBL4257005, “Therapeutically active compounds and their methods of use” (2016).

Tests used:
[1] = target: Isocitrate dehydrogenase [NADP] cytoplasmic (Homo sapiens, UniProt O75874); test: Inhibition of His-tagged wild type IDH1 (unknown origin)/FLAG-tagged IDH1 R132H mutant heterodimer expressed in Sf9 cells pre-incubated for 1 hr before addition of alpha-KG followed by diaphorase and resazurin addition and measured after 5 mins in presence of NADPH and 30 uM NADP ny fluorescence spectrometry
Isocitrate dehydrogenase [NADP] cytoplasmic (Homo sapiens, UniProt O75874), sequence (O75874 2-414 limits assumed): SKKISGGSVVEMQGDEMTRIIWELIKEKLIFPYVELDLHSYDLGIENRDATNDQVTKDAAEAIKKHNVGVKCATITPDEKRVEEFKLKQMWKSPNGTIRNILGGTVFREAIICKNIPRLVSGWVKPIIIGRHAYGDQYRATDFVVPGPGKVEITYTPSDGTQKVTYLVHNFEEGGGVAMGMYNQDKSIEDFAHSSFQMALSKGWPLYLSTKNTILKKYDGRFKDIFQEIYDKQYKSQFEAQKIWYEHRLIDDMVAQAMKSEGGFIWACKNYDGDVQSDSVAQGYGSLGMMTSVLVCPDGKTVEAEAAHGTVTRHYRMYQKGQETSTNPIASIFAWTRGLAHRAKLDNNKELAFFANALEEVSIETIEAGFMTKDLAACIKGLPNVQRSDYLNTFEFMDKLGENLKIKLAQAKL

[2] = target: Isocitrate dehydrogenase [NADP] cytoplasmic (Homo sapiens, UniProt O75874, R132C); test: Inhibition of DH1 R132C mutant homodimer (unknown origin) expressed in Sf9 cells pre-incubated for 1 hr before addition of alpha-KG followed by 90 mins incubation in presence of NADPH, NADP, diaphorase and resazurin by fluorescence spectrometry
Isocitrate dehydrogenase [NADP] cytoplasmic (Homo sapiens, UniProt O75874, R132C), sequence (O75874 2-414 R132C limits assumed): as the sequence (O75874 2-414 limits assumed) above, with R131C counted along it

[3] = target: Isocitrate dehydrogenase [NADP] cytoplasmic (Homo sapiens, UniProt O75874, R132H); test: Inhibition of DH1 R132H mutant homodimer (unknown origin) expressed in Sf9 cells pre-incubated for 1 hr before addition of alpha-KG followed by 90 mins incubation in presence of NADPH, NADP, diaphorase and resazurin by fluorescence spectrometry
Isocitrate dehydrogenase [NADP] cytoplasmic (Homo sapiens, UniProt O75874, R132H), sequence (O75874 2-414 R132H limits assumed): as the sequence (O75874 2-414 limits assumed) above, with R131H counted along it

Compound | IC50 [2] | also measured
C[C@@H](Nc1nc(N[C@H](C)C2CC2)nc(-c2ccc(Cl)cc2)n1)C1CC1 | – | IC50 [1]: Not Active
C[C@@H](Nc1nc(NCC(N)=O)nc(-c2cccc(C(F)(F)F)n2)n1)C1CC1 | Not Active | –
COc1ccc(F)c(-c2nc(N[C@H](C)C3CC3)nc(N[C@H](C)C3CC3)n2)c1 | – | IC50 [3]: Not Active
C[C@@H](Nc1nc(N[C@H](C)C2CC2)nc(-c2cccc(C(F)(F)F)n2)n1)C(=O)O | Not Active | –
C[C@@H](Nc1nc(N[C@H](C)C2CC2)nc(-c2cccc(C(F)(F)F)n2)n1)C(=O)N(C)C | Not Active | –
